Format in all cases: physicochemical
The nature of series [1]: Equilibrium solubility in phosphate buffers. Conditions: aqueous buffer, thermodynamic from solid, n = 3, mean. As for the experimental part:
Different phosphate buffers with a pH range of 1.0–7.4 were prepared as follows. Momobasic potassium phosphate (KH2PO4, 0.2 M) was prepared by dissolving 27.22 g of KH2PO4 in water and diluting with water to 1000 mL. Sodium hydroxide (NaOH, 0.2 M) was prepared by dissolving […] of NaOH in water and diluting with water to 1000 mL. Then, we placed 50 mL of the momobasic potassium phosphate solution in a 200 mL volumetric flask, added the specified volume of the sodium hydroxide solution and added water to volume.
The equilibrium solubilities of NCE were determined in 0.1 mol/mL phosphate buffers with a pH range of 1.0–7.4. An excess amount of NCE was put into the buffer, placed in a 37 °C water bath and shaken for 3 days at a rate of 100 rpm. Samples were centrifuged at a rate of 1.3 × 10^4 rpm for 10 min and then measured by HPLC (Waters e2695 Separations Module, Milford, MA, USA). Each experiment was performed in triplicates.

A short description of series [2]: Stability in perfusion buffers. The conditions noted are these: for Detected concentration / Rate of change: perfusion buffer. The method, then: Storage conditions were investigated to guarantee the samples were stable before HPLC analysis. The stability of NCE was evaluated in the perfusion solution (pH 6.5). Four aliquots of the NCE solutions were stored at room temperature for 0, 2, 4 or 6 h, respectively. Another three were stored at 4 °C for 0, 24 or 48 h, respectively. All the samples were centrifuged at a rate of 1.3 × 10^4 rpm for 10 min and then measured by HPLC. The sample concentrations were compared.

Series [3] in a line: 1-octanol/water partition coefficient, shake-flask method. Conditions: 37 °C. The method, then:
The partition coefficient (logP value) is related closely to drug’s absorption in vivo. Furthermore, it can help to get a better understanding of drug’s physicochemical properties. The 1-octanol/water partition coefficient of NCE was measured by a shake-flask method. Both the 1-octanol and aqueous buffer solution were saturated before performing the experiments. Solutions of about 3.3 mM NCE were prepared in aqueous 0.1 M HCl (pH = 1.0) solution and PBS buffer (pH = 6.8) solutions. Then, 1 mL of 1-octanol was added to 9 mL of the aqueous NCE solution in glass flasks. The mixtures were then stirred in a mechanical shaker for 6 h (37 °C). Samples were left in water baths and kept at the appropriate temperature (37 °C) for at least 72 h. After that, the concentrations in the aqueous phase and 1-octanol phase were determined by HPLC, respectively. The partition coefficients were calculated by the following equation. All the partitioning experiments were performed in at least triplicate.
(1) P1-octanol/water=lg (C1-octanol/Cwater)
where P1-octanol/water is the partition coefficient value; C1-octanol is the drug’s concentration in 1-octanol phase; Cwater is the drug’s concentration in aqueous solution.

Broadly, the solubility is the dissolved amount per volume that the medium holds. Broadly, the logP is a log measure of how a compound divides between an organic and an aqueous phase. A low value points to a more hydrophilic compound. As for `CNC(=O)c1cc(Oc2ccc(NC(=O)c3cccc(C(F)(F)F)c3)cc2)ccn1.Cc1ccc(S(=O)(=O)O)cc1.O` [NCE, 2-methylcarbamoyl-4-{4-[3-(trifluoromethyl)benzamido]phenoxy} pyridinium 4-methylbenzenesulfonate monohydrate], the solubility at 3 days in series [1] (phosphate buffer pH 1.0, 37 °C) turned out to be 81.7 µg/mL; in series [1] (phosphate buffer pH 5.0, 37 °C), 8.5 µg/mL; in series [1] (phosphate buffer pH 6.8, 37 °C) it was 9.3 µg/mL; in series [1] (phosphate buffer pH 7.4, 37 °C), 10 µg/mL. In addition, the Detected concentration in series [2] (4 °C, 24 h) came to 19.16 µg/mL; in series [2] (4 °C, 48 h) it was 18.99 µg/mL; in series [2] (20 °C, 0 h), 19.83 µg/mL; in series [2] (20 °C, 2 h), 19.66 µg/mL; in series [2] (20 °C, 4 h) it was 19.49 µg/mL; in series [2] (20 °C, 6 h), 19.32 µg/mL. Further, the Rate of change amounted to 3.38% in series [2] (4 °C, 24 h); 4.21% in series [2] (4 °C, 48 h); 0.86% in series [2] (20 °C, 2 h); 1.70% in series [2] (20 °C, 4 h); 2.55% in series [2] (20 °C, 6 h). In series [2] (perfusion buffers, up to 6 h at room temperature or 48 h at 4 °C), the “concentration variation rates, all samples in stability study” value was “less than 5%”. In addition, the logP at 6 h is 3.1 ± 0.04 in series [3] (1-octanol / 0.1 M HCl solution (pH = 1.0)) and 4.2 ± 0.07 in series [3] (1-octanol/PBS pH 6.8, pH 6.8, 1-octanol / PBS 6.8 solution).

The values are drawn from publication PMC4057667, “Study on Biopharmaceutics Classification and Oral Bioavailability of a Novel Multikinase Inhibitor NCE for Cancer Therapy” (International Journal of Molecular Sciences, 2014).
